The target in test [1] is T1, LdPAT4-DHHC (Leishmania donovani, UniProt A0A3S7X1Q3).
T1 construct: gene LdCL_280025100; DHHC domain only (423 bp), N-terminal GST tag (pGEX-4T-1, BamHI/SalI), E. coli Rosetta, ~40 kDa with tag
T1 sequence (A0A3S7X1Q3 268-407): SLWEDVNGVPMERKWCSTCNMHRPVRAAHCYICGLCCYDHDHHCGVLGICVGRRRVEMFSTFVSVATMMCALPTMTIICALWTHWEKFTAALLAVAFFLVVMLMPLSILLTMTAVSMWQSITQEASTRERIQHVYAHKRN
As to the kind of experiment: click-chemistry metabolic labelling of E. coli expressing LdPAT4-DHHC, Oregon Green […] fluorometry. In kind it is cell-based. Conditions: substrate Alk-C16 100 uM, induced E. coli Rosetta cells, 37 C, 6 h; 2-BMP concentration not stated.

The target of test [2] is T1, LdPAT4-DHHC. Described as above. The class given is cell-based. Particulars: 100 uM Alk-C16, induced E. coli Rosetta cells, 37 C, 6 h; labelled compound (alkyne probe).

Take `CCCCCCCCCCCCCCC(Br)C(=O)O` (centres unmarked) [2-BMP]: the “reduction in fluorescence intensity” value in test [1] is listed as “following 2-BMP treatment of induced cells, reduction in fluorescence intensity was detected”. `C#CCCCCCCCCCCCCCC(=O)O` [Alk-C16]: in test [2], the “click-chemistry metabolic labelling of E. coli expressing LdPAT4-DHHC, Oregon Gr” value was “predominant incorporation of palmitic acid analogs into transformed E. coli”.

The values above are taken from PMC6022219, “Identification and Characterization of a Novel Palmitoyl Acyltransferase as a Druggable Rheostat of Dynamic Palmitoylome in L. donovani” (Frontiers in Cellular and Infection Microbiology, 2018).
